Reference: ChEMBL document CHEMBL3991601, “The target landscape of clinical kinase drugs” (Science, 2017)
The source made the active and inactive calls. For most assays here, no stated cut-off is given here; in the data, actives have a measured Kd and inactives only a lower limit.

Key:
[1] = biological target: Tyrosine-protein kinase ABL1 (Homo sapiens, UniProt P00519)
[2] = biological target: RAC-gamma serine/threonine-protein kinase (Homo sapiens, UniProt Q9Y243)
[3] = biological target: T1, Serine/threonine-protein kinase Chk1 (Homo sapiens, UniProt O14757)
T1 sequence (O14757 whole entry): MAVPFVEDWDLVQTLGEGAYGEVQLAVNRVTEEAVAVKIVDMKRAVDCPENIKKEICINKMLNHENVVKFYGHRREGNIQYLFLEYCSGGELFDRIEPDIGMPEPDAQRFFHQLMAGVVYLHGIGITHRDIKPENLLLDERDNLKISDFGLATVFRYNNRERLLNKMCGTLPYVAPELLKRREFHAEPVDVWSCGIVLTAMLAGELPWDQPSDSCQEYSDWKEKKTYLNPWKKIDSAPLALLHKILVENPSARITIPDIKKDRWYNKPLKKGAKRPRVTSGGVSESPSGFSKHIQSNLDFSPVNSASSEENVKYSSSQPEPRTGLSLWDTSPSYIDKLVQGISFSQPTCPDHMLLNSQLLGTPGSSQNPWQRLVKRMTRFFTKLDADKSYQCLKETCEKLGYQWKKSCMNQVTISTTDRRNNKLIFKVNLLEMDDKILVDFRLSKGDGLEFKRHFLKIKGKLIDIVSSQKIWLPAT

Ephrin type-A receptor 4 = Ephrin type-A receptor 4 (Homo sapiens, UniProt P54764)
Sequence of Ephrin type-A receptor 4 (P54764 whole entry): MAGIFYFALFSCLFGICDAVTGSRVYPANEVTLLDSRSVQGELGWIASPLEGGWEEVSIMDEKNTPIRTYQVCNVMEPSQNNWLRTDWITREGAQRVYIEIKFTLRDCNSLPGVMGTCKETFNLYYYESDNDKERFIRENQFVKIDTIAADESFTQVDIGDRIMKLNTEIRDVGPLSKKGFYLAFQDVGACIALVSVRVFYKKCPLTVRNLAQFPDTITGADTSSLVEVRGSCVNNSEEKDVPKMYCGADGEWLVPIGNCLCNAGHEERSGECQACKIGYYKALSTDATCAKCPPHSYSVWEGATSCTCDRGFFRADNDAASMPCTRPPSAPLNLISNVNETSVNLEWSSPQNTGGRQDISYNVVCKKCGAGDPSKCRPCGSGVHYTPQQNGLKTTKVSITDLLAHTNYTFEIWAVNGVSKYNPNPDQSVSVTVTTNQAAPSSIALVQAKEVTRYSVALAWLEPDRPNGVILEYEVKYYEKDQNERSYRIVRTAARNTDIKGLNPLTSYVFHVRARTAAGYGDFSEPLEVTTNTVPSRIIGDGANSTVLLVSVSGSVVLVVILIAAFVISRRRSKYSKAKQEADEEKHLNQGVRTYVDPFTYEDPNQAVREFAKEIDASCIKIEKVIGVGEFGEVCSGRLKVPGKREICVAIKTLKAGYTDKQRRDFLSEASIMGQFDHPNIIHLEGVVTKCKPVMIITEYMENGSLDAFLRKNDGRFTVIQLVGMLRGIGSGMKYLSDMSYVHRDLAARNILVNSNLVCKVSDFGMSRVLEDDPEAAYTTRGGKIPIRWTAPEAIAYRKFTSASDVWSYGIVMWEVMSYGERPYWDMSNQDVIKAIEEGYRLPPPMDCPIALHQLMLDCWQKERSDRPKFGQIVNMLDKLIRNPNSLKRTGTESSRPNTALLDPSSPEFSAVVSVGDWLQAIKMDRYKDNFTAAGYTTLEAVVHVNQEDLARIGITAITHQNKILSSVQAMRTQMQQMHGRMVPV

Pyridoxal kinase = biological target: T2, Pyridoxal kinase (Homo sapiens, UniProt O00764)
T2 sequence (O00764 whole entry): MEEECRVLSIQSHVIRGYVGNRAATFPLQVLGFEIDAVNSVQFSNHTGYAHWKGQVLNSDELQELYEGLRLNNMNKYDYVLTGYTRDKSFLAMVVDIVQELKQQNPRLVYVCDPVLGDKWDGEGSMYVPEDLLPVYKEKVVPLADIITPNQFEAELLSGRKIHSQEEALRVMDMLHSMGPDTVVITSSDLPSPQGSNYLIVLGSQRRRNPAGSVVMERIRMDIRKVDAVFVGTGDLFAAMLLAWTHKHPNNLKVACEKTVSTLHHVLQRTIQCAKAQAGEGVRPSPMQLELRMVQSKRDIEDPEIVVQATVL

[4] = biological target: Protein kinase C delta type (Homo sapiens, UniProt Q05655)
Sequence of Protein kinase C delta type (Q05655 whole entry): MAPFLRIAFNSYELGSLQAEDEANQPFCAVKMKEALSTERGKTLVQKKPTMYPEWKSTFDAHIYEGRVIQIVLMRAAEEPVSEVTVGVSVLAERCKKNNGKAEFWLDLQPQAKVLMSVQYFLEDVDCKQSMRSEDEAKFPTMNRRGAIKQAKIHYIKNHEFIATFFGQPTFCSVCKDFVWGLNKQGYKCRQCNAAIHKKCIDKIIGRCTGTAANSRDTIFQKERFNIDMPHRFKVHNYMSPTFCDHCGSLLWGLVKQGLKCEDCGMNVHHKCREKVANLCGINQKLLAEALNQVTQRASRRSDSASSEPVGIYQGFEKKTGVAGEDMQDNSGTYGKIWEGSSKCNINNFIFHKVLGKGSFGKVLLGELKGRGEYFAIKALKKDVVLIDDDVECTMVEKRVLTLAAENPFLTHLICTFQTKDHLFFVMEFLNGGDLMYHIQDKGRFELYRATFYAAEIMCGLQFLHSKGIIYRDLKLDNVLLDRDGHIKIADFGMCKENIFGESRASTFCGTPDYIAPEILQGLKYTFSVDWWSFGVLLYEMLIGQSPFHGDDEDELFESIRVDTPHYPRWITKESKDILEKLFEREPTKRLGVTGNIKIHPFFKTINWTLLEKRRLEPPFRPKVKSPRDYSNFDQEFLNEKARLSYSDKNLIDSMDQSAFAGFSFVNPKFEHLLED

[5] = biological target: Protein kinase C theta type (Homo sapiens, UniProt Q04759)
Sequence of Protein kinase C theta type (Q04759 whole entry): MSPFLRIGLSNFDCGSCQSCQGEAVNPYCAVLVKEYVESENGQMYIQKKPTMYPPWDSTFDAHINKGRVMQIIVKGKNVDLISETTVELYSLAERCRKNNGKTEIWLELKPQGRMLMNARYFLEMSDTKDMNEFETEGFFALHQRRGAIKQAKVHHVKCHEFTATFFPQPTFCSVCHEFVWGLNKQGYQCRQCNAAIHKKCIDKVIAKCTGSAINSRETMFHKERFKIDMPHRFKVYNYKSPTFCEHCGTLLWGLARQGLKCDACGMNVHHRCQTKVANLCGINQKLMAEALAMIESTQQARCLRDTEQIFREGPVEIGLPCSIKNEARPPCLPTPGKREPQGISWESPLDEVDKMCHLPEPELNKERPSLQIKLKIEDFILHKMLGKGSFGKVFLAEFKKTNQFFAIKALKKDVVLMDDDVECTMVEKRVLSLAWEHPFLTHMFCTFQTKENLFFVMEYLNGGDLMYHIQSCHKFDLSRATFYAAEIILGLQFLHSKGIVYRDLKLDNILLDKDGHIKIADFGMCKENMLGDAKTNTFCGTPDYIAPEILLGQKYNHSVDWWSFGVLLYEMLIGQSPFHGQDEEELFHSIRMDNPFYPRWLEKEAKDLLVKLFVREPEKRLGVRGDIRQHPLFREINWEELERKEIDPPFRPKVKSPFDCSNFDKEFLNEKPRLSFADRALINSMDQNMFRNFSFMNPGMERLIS

[6] = biological target: T3, Serine/threonine-protein kinase D3 (Homo sapiens, UniProt O94806)
T3 sequence (O94806 whole entry): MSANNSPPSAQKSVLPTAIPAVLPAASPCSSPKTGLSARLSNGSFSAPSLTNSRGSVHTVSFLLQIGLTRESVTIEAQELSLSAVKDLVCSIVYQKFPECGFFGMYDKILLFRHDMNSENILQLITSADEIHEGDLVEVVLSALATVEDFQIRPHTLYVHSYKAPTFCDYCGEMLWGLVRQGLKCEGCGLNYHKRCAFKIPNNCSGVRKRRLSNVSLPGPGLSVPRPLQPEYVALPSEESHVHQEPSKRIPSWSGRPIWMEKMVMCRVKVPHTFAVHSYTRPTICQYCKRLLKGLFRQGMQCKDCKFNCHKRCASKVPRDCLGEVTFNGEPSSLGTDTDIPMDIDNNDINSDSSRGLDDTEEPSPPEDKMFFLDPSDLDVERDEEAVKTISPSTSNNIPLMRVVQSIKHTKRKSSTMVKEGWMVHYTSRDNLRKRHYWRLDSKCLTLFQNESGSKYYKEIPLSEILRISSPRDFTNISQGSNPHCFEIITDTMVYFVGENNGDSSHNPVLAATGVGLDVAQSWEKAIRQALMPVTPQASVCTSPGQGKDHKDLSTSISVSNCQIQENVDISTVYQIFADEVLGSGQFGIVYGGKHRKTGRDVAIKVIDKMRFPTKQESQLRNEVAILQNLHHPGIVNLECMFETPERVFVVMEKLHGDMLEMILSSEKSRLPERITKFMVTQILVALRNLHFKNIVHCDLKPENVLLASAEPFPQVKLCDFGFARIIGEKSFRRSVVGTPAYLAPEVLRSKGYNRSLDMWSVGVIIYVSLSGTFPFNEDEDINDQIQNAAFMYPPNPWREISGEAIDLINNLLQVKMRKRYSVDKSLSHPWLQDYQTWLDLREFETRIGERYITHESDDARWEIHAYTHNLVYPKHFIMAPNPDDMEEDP

ADP/ATP translocase 3 = biological target: T4, ADP/ATP translocase 3 (Homo sapiens, UniProt P12236)
T4 sequence (P12236 whole entry): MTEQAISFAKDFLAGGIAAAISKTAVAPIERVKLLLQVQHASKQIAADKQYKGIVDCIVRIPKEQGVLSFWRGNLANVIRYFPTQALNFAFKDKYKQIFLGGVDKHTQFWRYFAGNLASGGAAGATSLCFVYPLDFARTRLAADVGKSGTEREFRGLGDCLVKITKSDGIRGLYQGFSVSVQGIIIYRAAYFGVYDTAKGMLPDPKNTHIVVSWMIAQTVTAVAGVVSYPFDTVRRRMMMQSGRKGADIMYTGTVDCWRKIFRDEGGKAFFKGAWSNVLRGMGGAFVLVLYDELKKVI

[7] = biological target: Serine/threonine-protein kinase 26 (Homo sapiens, UniProt Q9P289)
Sequence of Serine/threonine-protein kinase 26 (Q9P289 whole entry): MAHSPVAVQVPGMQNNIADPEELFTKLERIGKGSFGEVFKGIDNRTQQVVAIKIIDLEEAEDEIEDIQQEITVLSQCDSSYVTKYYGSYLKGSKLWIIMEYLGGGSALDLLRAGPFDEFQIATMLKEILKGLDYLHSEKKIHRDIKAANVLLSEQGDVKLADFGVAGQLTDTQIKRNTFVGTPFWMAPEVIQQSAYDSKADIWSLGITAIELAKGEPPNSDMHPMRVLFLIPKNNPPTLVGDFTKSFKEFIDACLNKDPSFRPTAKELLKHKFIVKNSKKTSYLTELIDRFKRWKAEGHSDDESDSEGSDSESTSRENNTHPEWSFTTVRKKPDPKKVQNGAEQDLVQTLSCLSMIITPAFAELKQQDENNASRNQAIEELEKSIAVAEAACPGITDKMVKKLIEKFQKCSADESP

[8] = biological target: T5, Serine/threonine-protein kinase 4 (Homo sapiens, UniProt Q13043)
T5 sequence (Q13043 whole entry): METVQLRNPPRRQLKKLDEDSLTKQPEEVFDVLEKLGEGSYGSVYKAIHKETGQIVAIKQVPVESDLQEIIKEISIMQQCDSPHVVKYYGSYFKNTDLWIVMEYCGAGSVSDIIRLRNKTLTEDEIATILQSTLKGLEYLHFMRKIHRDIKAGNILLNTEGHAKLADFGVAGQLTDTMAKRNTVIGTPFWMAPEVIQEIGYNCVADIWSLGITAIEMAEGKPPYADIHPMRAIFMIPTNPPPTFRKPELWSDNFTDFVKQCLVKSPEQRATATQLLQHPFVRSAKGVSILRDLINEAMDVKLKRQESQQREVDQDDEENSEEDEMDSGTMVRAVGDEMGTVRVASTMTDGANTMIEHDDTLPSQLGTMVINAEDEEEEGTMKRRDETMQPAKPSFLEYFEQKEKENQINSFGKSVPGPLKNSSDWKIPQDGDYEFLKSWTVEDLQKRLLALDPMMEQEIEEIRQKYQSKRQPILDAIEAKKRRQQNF

Sequence of RAC-gamma serine/threonine-protein kinase (Q9Y243 whole entry): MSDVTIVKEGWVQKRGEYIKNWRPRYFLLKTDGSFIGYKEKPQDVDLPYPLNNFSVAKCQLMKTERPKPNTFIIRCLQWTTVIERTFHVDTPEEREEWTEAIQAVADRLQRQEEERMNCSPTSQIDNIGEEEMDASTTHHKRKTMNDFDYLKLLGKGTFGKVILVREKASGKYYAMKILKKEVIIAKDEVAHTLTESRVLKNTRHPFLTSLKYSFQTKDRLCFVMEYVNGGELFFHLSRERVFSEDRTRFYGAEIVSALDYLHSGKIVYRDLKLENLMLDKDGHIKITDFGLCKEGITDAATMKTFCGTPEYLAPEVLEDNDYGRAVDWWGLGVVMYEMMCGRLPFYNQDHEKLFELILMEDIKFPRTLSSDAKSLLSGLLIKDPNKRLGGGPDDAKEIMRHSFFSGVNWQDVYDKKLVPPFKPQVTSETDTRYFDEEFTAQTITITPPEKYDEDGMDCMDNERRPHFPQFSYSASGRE
Sequence of Tyrosine-protein kinase ABL1 (P00519 whole entry): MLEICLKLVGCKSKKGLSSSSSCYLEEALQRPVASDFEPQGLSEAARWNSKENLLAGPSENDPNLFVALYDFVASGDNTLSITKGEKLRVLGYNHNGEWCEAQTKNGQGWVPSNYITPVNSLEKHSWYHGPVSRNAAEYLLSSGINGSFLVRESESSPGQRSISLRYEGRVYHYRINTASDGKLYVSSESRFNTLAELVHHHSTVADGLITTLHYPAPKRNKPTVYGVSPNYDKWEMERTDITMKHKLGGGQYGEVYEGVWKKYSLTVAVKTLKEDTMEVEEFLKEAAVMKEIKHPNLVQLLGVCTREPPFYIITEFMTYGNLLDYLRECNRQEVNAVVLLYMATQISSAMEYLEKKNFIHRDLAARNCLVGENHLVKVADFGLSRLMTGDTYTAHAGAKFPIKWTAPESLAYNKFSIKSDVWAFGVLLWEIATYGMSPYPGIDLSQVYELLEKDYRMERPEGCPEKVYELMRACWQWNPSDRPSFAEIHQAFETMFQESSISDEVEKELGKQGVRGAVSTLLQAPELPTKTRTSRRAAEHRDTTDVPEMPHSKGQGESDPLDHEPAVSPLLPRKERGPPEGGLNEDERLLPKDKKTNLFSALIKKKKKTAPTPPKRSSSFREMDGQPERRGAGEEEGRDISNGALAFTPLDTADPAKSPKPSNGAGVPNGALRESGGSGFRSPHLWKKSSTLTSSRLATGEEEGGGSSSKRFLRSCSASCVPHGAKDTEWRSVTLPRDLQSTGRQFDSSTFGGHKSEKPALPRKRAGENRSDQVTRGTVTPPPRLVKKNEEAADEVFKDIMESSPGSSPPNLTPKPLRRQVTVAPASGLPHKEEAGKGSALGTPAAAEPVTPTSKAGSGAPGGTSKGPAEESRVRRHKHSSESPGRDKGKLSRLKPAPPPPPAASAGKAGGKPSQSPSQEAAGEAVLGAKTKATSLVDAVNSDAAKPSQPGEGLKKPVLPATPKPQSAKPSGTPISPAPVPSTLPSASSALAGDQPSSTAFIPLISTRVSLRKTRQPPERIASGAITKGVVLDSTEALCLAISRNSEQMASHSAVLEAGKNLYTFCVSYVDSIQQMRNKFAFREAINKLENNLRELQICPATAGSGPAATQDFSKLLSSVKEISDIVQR

Compound | Kd [1] | Kd [2] | Kd [3] | Kd (Ephrin type-A receptor 4) | Kd (Pyridoxal kinase) | Kd [4] | Kd [5] | Kd [6] | Kd (ADP/ATP translocase 3) | Kd [7] | Kd [8]
C=CC(=O)N1CCC[C@H](n2c(=O)n(-c3ccc(Oc4ccccc4)cc3)c3c(N)ncnc32)C1 | > 30 µM (inactive) | > 30 µM (inactive) | > 30 µM (inactive) | > 30 µM (inactive) | > 30 µM (inactive) | > 30 µM (inactive) | > 30 µM (inactive) | > 30 µM (inactive) | > 30 µM (inactive) | > 30 µM (inactive) | > 30 µM (inactive)
Cc1nc2cc(-c3nn(C(C)C)c4ncnc(N)c34)ccc2o1 | > 30 µM (inactive) | > 30 µM (inactive) | > 30 µM (inactive) | > 30 µM (inactive) | > 30 µM (inactive) | > 30 µM (inactive) | > 30 µM (inactive) | > 30 µM (inactive) | > 30 µM (inactive) | 2.19 µM (active) | > 30 µM (inactive)
Nc1ncnc2c1c(-c1cccc(OCc3ccccc3)c1)cn2[C@H]1C[C@@H](CN2CCC2)C1 [AEW-541] | > 30 µM (inactive) | > 30 µM (inactive) | > 30 µM (inactive) | > 30 µM (inactive) | > 30 µM (inactive) | > 30 µM (inactive) | > 30 µM (inactive) | > 30 µM (inactive) | > 30 µM (inactive) | > 30 µM (inactive) | 3.77 µM (active)
Cc1nc(NC(=O)N2CCC[C@H]2C(N)=O)sc1-c1ccnc(C(C)(C)C(F)(F)F)c1 [ALPELISIB] | > 30 µM (inactive) | > 30 µM (inactive) | > 30 µM (inactive) | > 30 µM (inactive) | > 30 µM (inactive) | > 30 µM (inactive) | > 30 µM (inactive) | > 30 µM (inactive) | > 30 µM (inactive) | > 30 µM (inactive) | > 30 µM (inactive)
Cc1csc(-c2nnc(Nc3ccc(Oc4ncccc4-c4ccnc(N)n4)cc3)c3ccccc23)c1 [AMG-900] | 1.9 µM (active) | > 30 µM (inactive) | > 30 µM (inactive) | > 30 µM (inactive) | > 30 µM (inactive) | 1.09 µM (active) | > 30 µM (inactive) | 1.91 µM (active) | > 30 µM (inactive) | 3.02 µM (active) | > 30 µM (inactive)
C=CC(=O)Nc1cc2c(Nc3ccc(F)c(Cl)c3)ncnc2cc1C#CC(C)(C)N1CCN(C)CC1 [AV-412 FREE BASE] | > 30 µM (inactive) | > 30 µM (inactive) | > 30 µM (inactive) | > 30 µM (inactive) | > 30 µM (inactive) | > 30 µM (inactive) | > 30 µM (inactive) | > 30 µM (inactive) | > 30 µM (inactive) | > 30 µM (inactive) | > 30 µM (inactive)
COc1cc([C@@H]2c3cc4c(cc3[C@H](O)[C@H]3COC(=O)[C@@H]23)OCO4)cc(OC)c1OC [AXL-1717] | > 30 µM (inactive) | > 30 µM (inactive) | > 30 µM (inactive) | > 30 µM (inactive) | > 30 µM (inactive) | > 30 µM (inactive) | > 30 µM (inactive) | > 30 µM (inactive) | > 30 µM (inactive) | > 30 µM (inactive) | > 30 µM (inactive)
Cc1cc(C(=O)NOCCO)c(Nc2ccc(I)cc2F)n(C)c1=O [AZD-8330] | > 30 µM (inactive) | > 30 µM (inactive) | > 30 µM (inactive) | > 30 µM (inactive) | > 30 µM (inactive) | > 30 µM (inactive) | > 30 µM (inactive) | > 30 µM (inactive) | > 30 µM (inactive) | > 30 µM (inactive) | > 30 µM (inactive)
Cn1cnc2c(F)c(Nc3ccc(Br)cc3F)c(C(=O)NOCCO)cc21 [BINIMETINIB] | > 30 µM (inactive) | > 30 µM (inactive) | > 30 µM (inactive) | > 30 µM (inactive) | > 30 µM (inactive) | > 30 µM (inactive) | > 30 µM (inactive) | > 30 µM (inactive) | > 30 µM (inactive) | > 30 µM (inactive) | > 30 µM (inactive)
CCn1c(C(=O)N(C2CC2)C2CC2)cc2c3c(ncn3C)c(Nc3cc(C)n(C)n3)nc21 [BMS-911543] | > 30 µM (inactive) | > 30 µM (inactive) | > 30 µM (inactive) | > 30 µM (inactive) | > 30 µM (inactive) | > 30 µM (inactive) | > 30 µM (inactive) | > 30 µM (inactive) | > 30 µM (inactive) | > 30 µM (inactive) | > 30 µM (inactive)
COc1cc2ncnc(Oc3cccc(NC(=O)Nc4cc(C(C)(C)C(F)(F)F)on4)c3)c2cc1OC [CEP-32496] | 0.05 µM (active) | > 30 µM (inactive) | > 30 µM (inactive) | > 30 µM (inactive) | > 30 µM (inactive) | > 30 µM (inactive) | > 30 µM (inactive) | > 30 µM (inactive) | > 30 µM (inactive) | > 30 µM (inactive) | > 30 µM (inactive)
Cc1cc(Nc2ncc(Cl)c(Nc3ccccc3S(=O)(=O)C(C)C)n2)c(OC(C)C)cc1C1CCNCC1 [CERITINIB] | > 30 µM (inactive) | > 30 µM (inactive) | > 30 µM (inactive) | > 30 µM (inactive) | > 30 µM (inactive) | > 30 µM (inactive) | > 30 µM (inactive) | > 30 µM (inactive) | > 30 µM (inactive) | > 30 µM (inactive) | > 30 µM (inactive)
CC(C)c1cc(CNc2nc(Nc3cc(C4CC4)[nH]n3)cc(N3CCN(C)CC3)n2)on1 [XL-228] | 0.075 µM (active) | > 30 µM (inactive) | > 30 µM (inactive) | 0.167 µM (active) | > 30 µM (inactive) | > 30 µM (inactive) | > 30 µM (inactive) | 1.86 µM (active) | > 30 µM (inactive) | > 30 µM (inactive) | –
